Experiments:
Assay type in all cases: in vivo
Abutilon theophrasti [1] = test: Herbicidal action post-emergence, greenhouse pot test
Outline: (§1)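 Plants grown from seed in sandy loam are treated at the one-leaf stage with aqueous suspensions or emulsions, 600 L/ha water rate, 0.5% additive, at 80 g/ha or lower. They then stand about 3 weeks in the greenhouse before visual scoring against untreated controls.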

Alopecurus myosuroides [2] = test: as above; conditions: scored visually after about 3 weeks vs untreated controls
Outline: as §1

Amaranthus retroflexus [3] = test: as above
Outline: as §1

Avena fatua [4] = test: as above; conditions: application rate 20 g/ha
Outline: as §1

Echinochloa crus-galli [5] = test: as above
Outline: as §1

Matricaria inodora [6] = test: as above
Outline: as §1

Pharbitis purpurea [7] = test: as above
Outline: as §1

Polygonum convolvulus [8] = test: as above
Outline: as §1

Setaria viridis [9] = test: as above
Outline: as §1

Stellaria media [10] = test: as above; conditions: application rate 20 g/ha
Outline: as §1

Veronica persica [11] = test: as above
Outline: as §1

Viola tricolor [12] = test: as above; conditions: application rate 20 g/ha
Outline: as §1

Oryza sativa = test: Crop compatibility post-emergence, greenhouse pot test; conditions: application rate 20 g/ha
Outline: (§2)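 Visual % damage rating versus untreated plants (100% = plants dead, 0% = as control), taken about 3 weeks post-treatment. Spray applied to foliage at one-leaf stage (2–3 weeks from sowing) as WP/EC formulation in water plus 0.5% additive, 600 L/ha; greenhouse pots, sandy loam.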

Zea mays = test: as above; conditions: application rate 20 g/ha
Outline: as §2

Digitaria sanguinalis = test: Herbicidal action post-emergence, greenhouse pot test; conditions: application rate 20 g/ha
Lolium rigidum [13] = test: as above; conditions: application rate 80 g/ha
Outline: as §1

Abutilon theophrasti [14] = test: Herbicidal action pre-emergence, greenhouse pot test
Outline: (§3)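 Efficacy (%) was estimated visually after about 3 weeks in the greenhouse by comparison with untreated pots. Before that, seeded pots received a surface spray of formulated compound at 320 g/ha or less.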

Alopecurus myosuroides [15] = test: as above; conditions: application rate 320 g/ha
Outline: as §3

Amaranthus retroflexus [16] = test: as above
Outline: as §3

Avena fatua [17] = test: as above; conditions: application rate 320 g/ha
Outline: as §3

Cyperus esculentus = test: as above; conditions: application rate 320 g/ha
Outline: as §3

Echinochloa crus-galli [18] = test: as above; conditions: application rate 320 g/ha
Outline: as §3

Hordeum murinum = test: as above; conditions: application rate 320 g/ha
Outline: as §3

Lolium rigidum [19] = test: as above; conditions: application rate 320 g/ha
Outline: as §3

Pharbitis purpurea [20] = test: as above
Outline: as §3

Polygonum convolvulus [21] = test: as above
Outline: as §3

Setaria viridis [22] = test: as above
Outline: as §3

Stellaria media [23] = test: as above
Outline: as §3

Veronica persica [24] = test: as above
Outline: as §3

Viola tricolor [25] = test: as above
Outline: as §3

Matricaria inodora [26] = test: as above
Source text: Seeds of mono- and dicotyledonous weeds and crop plants were laid out in plastic or organic plant pots and covered with soil. The compounds of the invention formulated in the form of wettable powders (WP) or as emulsion concentrates (EC) were then applied to the surface of the covering soil as an aqueous suspension or emulsion with addition of 0.5% additive at a water application rate equivalent to 600 L/ha. After the treatment, the pots were placed in a greenhouse and kept under good growth conditions for the test plants. After about 3 weeks, the efficacy of the preparations was scored visually as a percentage by comparison with untreated controls. For example, 100% efficacy=plants have died. 0% efficacy=like control plants. Tables B1 to B17 below show the efficacies of selected compounds of the general formula (I) […] aforementioned trial method.

Triticum aestivum = test: Crop compatibility post-emergence, greenhouse pot test; conditions: application rate 20 g/ha
Outline: as §2

Oryza sativa (Efficacy in %) (Oryza sativa) [%]	Zea mays (Efficacy in %) (Zea mays) [%]	Structure (SMILES)	Abutilon theophrasti (Efficacy in %) (Abutilon theophrasti [1]; application rate 20 g/ha) [%]	Amaranthus retroflexus (Efficacy in %) (Amaranthus retroflexus [3]; application rate 20 g/ha) [%]	Echinochloa crus-galli (Efficacy in %) (Echinochloa crus-galli [5]; application rate 20 g/ha) [%]	Matricaria inodora (Efficacy in %) (Matricaria inodora [6]; application rate 20 g/ha) [%]	Pharbitis purpurea (Efficacy in %) (Pharbitis purpurea [7]; application rate 20 g/ha) [%]	Polygonum convolvulus (Efficacy in %) (Polygonum convolvulus [8]; application rate 20 g/ha) [%]	Setaria viridis (Efficacy in %) (Setaria viridis [9]; application rate 20 g/ha) [%]	Stellaria media (Efficacy in %) (Stellaria media [10]) [%]	Veronica persica (Efficacy in %) (Veronica persica [11]; application rate 20 g/ha) [%]	Viola tricolor (Efficacy in %) (Viola tricolor [12]) [%]	Lolium rigidum (Efficacy in %) (Lolium rigidum [13]) [%]	Alopecurus myosuroides (Efficacy in %) (Alopecurus myosuroides [15]) [%]	Avena fatua (Efficacy in %) (Avena fatua [17]) [%]	Cyperus esculentus (Efficacy in %) (Cyperus esculentus) [%]	Echinochloa crus-galli (Efficacy in %) (Echinochloa crus-galli [18]) [%]	Hordeum murinum (Efficacy in %) (Hordeum murinum) [%]	Lolium rigidum (Efficacy in %) (Lolium rigidum [19]) [%]	further results
0	0	CCOC(=O)CCOC(=O)C(CC)Sc1cc(-n2c(=O)cc(C(F)(F)F)n(C)c2=O)c(F)cc1Cl (stereo not drawn) [I.1-2-3, 3-Ethoxy-3-oxopropyl 2-({2-chloro-4-fluoro-5-[3-methyl-2,6-dioxo-4-(trifluoromethyl)-3,6-dihydropyrimidin-1(2H)-yl]phenyl}sulfanyl)butanoate]	100	100	100	100	100	100	100	100	100	100								Alopecurus myosuroides (Efficacy in %) (Alopecurus myosuroides [2]; application rate 20 g/ha): 90%; Avena fatua (Efficacy in %) (Avena fatua [4]): 100%; Digitaria sanguinalis (Efficacy in %) (Digitaria sanguinalis): 100%
20	10	CCNC(=O)COC(=O)C(C)Sc1cc(-n2c(=O)cc(C(F)(F)F)n(C)c2=O)c(F)cc1Cl (stereo not drawn) [I.1-183]								100	100	100	100	90	90	80	100	90	90	Abutilon theophrasti (Efficacy in %) (Abutilon theophrasti [1]; application rate 80 g/ha): 100%; Alopecurus myosuroides (Efficacy in %) (Alopecurus myosuroides [2]; application rate 80 g/ha): 80%; Amaranthus retroflexus (Efficacy in %) (Amaranthus retroflexus [3]; application rate 80 g/ha): 100%; Echinochloa crus-galli (Efficacy in %) (Echinochloa crus-galli [5]; application rate 80 g/ha): 100%; Matricaria inodora (Efficacy in %) (Matricaria inodora [6]; application rate 80 g/ha): 100%; Pharbitis purpurea (Efficacy in %) (Pharbitis purpurea [7]; application rate 80 g/ha): 100%; Polygonum convolvulus (Efficacy in %) (Polygonum convolvulus [8]; application rate 80 g/ha): 100%; Setaria viridis (Efficacy in %) (Setaria viridis [9]; application rate 80 g/ha): 100%; Abutilon theophrasti (Efficacy in %) (Abutilon theophrasti [14]; application rate 320 g/ha): 100%; Amaranthus retroflexus (Efficacy in %) (Amaranthus retroflexus [16]; application rate 80 g/ha): 100%; Pharbitis purpurea (Efficacy in %) (Pharbitis purpurea [20]; application rate 320 g/ha): 100%; Polygonum convolvulus (Efficacy in %) (Polygonum convolvulus [21]; application rate 320 g/ha): 100%; Setaria viridis (Efficacy in %) (Setaria viridis [22]; application rate 320 g/ha): 100%; Stellaria media (Efficacy in %) (Stellaria media [23]; application rate 320 g/ha): 100%; Veronica persica (Efficacy in %) (Veronica persica [24]; application rate 320 g/ha): 100%; Viola tricolor (Efficacy in %) (Viola tricolor [25]; application rate 320 g/ha): 100%; Matricaria inodora (Efficacy in %) (Matricaria inodora [26]; application rate 320 g/ha): 100%
10		COC(=O)COC(=O)C(C)Sc1cc(-n2c(=O)cc(C(F)(F)F)n(C)c2=O)c(F)cc1Cl (stereo not drawn) [I.1-42]	100	100	100	100	100	100	100	100		100	90	90	90	100	100	100	100	Veronica persica (Efficacy in %) (Veronica persica [11]; application rate 80 g/ha): 100%; Triticum aestivum (Efficacy in %) (Triticum aestivum): 20%; Abutilon theophrasti (Efficacy in %) (Abutilon theophrasti [14]; application rate 80 g/ha): 100%; Amaranthus retroflexus (Efficacy in %) (Amaranthus retroflexus [16]; application rate 20 g/ha): 100%; Pharbitis purpurea (Efficacy in %) (Pharbitis purpurea [20]; application rate 80 g/ha): 100%; Polygonum convolvulus (Efficacy in %) (Polygonum convolvulus [21]; application rate 80 g/ha): 100%; Setaria viridis (Efficacy in %) (Setaria viridis [22]; application rate 80 g/ha): 100%; Stellaria media (Efficacy in %) (Stellaria media [23]; application rate 80 g/ha): 100%; Veronica persica (Efficacy in %) (Veronica persica [24]; application rate 80 g/ha): 100%; Viola tricolor (Efficacy in %) (Viola tricolor [25]; application rate 80 g/ha): 100%; Matricaria inodora (Efficacy in %) (Matricaria inodora [26]; application rate 80 g/ha): 100%
